According to patent US9950998B2, “Sulphated chelating agent” (priority 2012, dated 2018):
Blank lines part the entries; values can stand above or below the compound they belong to.

How the values were obtained:
Water solubility = assay type: physicochemical; details: for water solubility: synthesis example, isolated powder
pH of 30% solution = assay type: physicochemical
[1] = system: Escherichia Coli ATCC 25922; assay: Antibacterial activity MIC; assay type: cell-based; details: pH 7-7.5, sample 30% in aqueous solution
Procedure: (§1) The ability of Tetra Hydroxy Ethyl Di Sulphate-Di Natrium (THES) as a Sulphate chelating agent to open/loosen the cell membrane was tested against two types of bacterias, ie: Staphylococcus aerus (gram positive) that has two cell membrane (the outer membrane as the outer cell wall and the inner membrane) and E. Colli (gram negative) that has three cell membranes. First, the Minimum Inhibitory Concentration (MIC) of each bacterias was determined, then the bacteria membrane alteration after contacting with THES were observed by Electron Microscope (TEM and SEM) with the THES concentration range below and above MIC. Antibacterial activity was tested using disc-diffusion method by checking the clear zone from the paper disc inhibition that contains THES. The growth curve were made by means examining the bacterial culture on the broth media.
(§2) • 1. Bacteria preparation • The testing bacterias were growth on the aqueous medium and incubated for 24 hours at 37° C. • 2. […] This gradual concentration variation is necessary to determine MIC (Minimum Inhibitory Concentration) and the bacteriostatic/bactericidal properties of the tested Biocide. • 3. Determination of Killing method (bacteriostatic and bactericidal properties) • The testing was done on the aqueous medium contains the tested substance with the concentration 5, 10 and 20%. The turbidity of the cultured medium then will be measured every 30 minutes until 270 minutes with spectrophotometer. • 4. Preparation of microbe cells for electron microscope examination • Staphylococcus aereus and Escherichia coli were growth on the aqueous medium within 24 hours, then mixed with tetra hydroxy ethyl di sulphate di sodium (THES) with the final concentration 0.6; 5 and 10%. This system mixtures then was placed under vibrating incubator for several hours. Microbe cells then were separated and washed, first with NaCl 0.9% then with distilled water. Cells then were utilized for the preparation of electron microscope testing. • 5. Preparation for Scanning Electron Microscope (SEM) examination • Bacteria cells were suspended into 4% collodion. The said suspensions then were fixed on some metal disc and were coated with the gold powder. Then were examined with electron microscope and pictured. • 6. Preparation for Transmittance Electron Microscope (TEM) examination • a) The prepared microbes in (5) were fixed into a mixture of formaldehyde 2% and glutaraldehyde 0.5% for 2 hours at 4° C. • b) The above mixtures then was three times washed with pH 7 phosphate buffer, then were diluted into bovin serum albumin (BSA) 1/5 for embedded preparation, while leave glutaraldehyde hardening at room temperature. • c) After leaving dehydrated in alcohol, the white LR resin then will be infiltrated. • d) Embedded process were done at white LR resin following by polymerization process at 60° C. for 48 hours time. The polymerization product as hardened capsules then are ready to be sliced. • e) Making of semi thin and ultra thin slices. • Slices of microbe sample were made by utilizing automatic ultra microtom. To get the precised and accurate slices of sample, semi thin slice were made and coloured with blue toluidine then were examined under the visible microscope. When the right slices were obtained, ultra thin slices were prepared and were made contrast with uranil acetate and lead citrate. The dried ultra thin slices then can be examined with Transmittance Electron Microscope. Testing Results Minimum Inhibitory Concentration (MIC)
(§3) The test done on the pH range of 7-7.5 with the sample of Tetra Hydroxy Ethyl Di Sulphate-Di Natrium (THES-Di Natrium) 30% in aqueous solution.

[2] = system: Staphylococcus Aerus ATCC 6538; assay: Antibacterial activity MIC; assay type: cell-based; details: pH 7-7.5, sample 30% in aqueous solution
Procedure: as §1, §2, §3

Salmonella Typhii = assay: Antibacterial activity MIC; assay type: cell-based; details: pH 7-7.5, sample 30% in aqueous solution
Procedure: as §1, §2, §3

[3] = system: Pseudomonas Aeruginosa ATCC 27853; assay: Antibacterial activity MIC; assay type: cell-based; details: pH 7-7.5, sample 30% in aqueous solution
Procedure: as §1, §2, §3

Acinetobacter Anitratus = assay: Antibacterial activity MIC; assay type: cell-based; details: pH 7-7.5, sample 30% in aqueous solution
Procedure: as §1, §2, §3

Klebsiella Pneumoniae = assay: Antibacterial activity MIC; assay type: cell-based; details: pH 7-7.5, sample 30% in aqueous solution
Procedure: as §1, §2, §3

[4] = system: Bacillus Subtilis ATCC 6633; assay: Antibacterial activity MIC; assay type: cell-based; details: pH 7-7.5, sample 30% in aqueous solution
Procedure: as §1, §2, §3

[5] = system: Staphylococcus Epidermidis ATCC 12228; assay: Antibacterial activity MIC; assay type: cell-based; details: pH 7-7.5, sample 30% in aqueous solution
Procedure: as §1, §2, §3

[6] = system: Staphylococcus Aerus ATCC 6538; assay: Electron microscope (TEM and SEM) examination of cell membrane; assay type: cell-based; details: in contact with 0.05% and 1% THES at pH 7 (FIG. 4)
Procedure: as §1
(§4) Staphylococcus aerus ATCC 6538, Escherichia coli ATCC 9637 were supplied from Chemotherapy Laboratory of Pharmaceutical Department, Bandung Institute of Technology (ITB).
(§5) • 1. […] The turbidity of the cultured medium then will be measured every 30 minutes until 270 minutes with spectrophotometer. • 4. […] The polymerization product as hardened capsules then are ready to be sliced. • e) Making of semi thin and ultra thin slices. • Slices of microbe sample were made by utilizing automatic ultra microtom. […]

[7] = system: Escherichia coli ATCC 9637; assay: as above; assay type: cell-based; details: in contact with 0.05% and 1% THES at pH 7 (FIG. 5)
Procedure: as §1, §4, §5

E. Coli = assay: Biocide effication plate test, E. Coli; assay type: cell-based; details: for Total Plate Count: Blanco 3900
Aspergillus Niger = assay: Antifungal activity MIC; assay type: cell-based; details: pH 7-7.5, sample 30% in aqueous solution
Procedure: as §1
as §5, with “1. Bacteria preparation • The testing bacterias were growth on the aqueous medium and incubated for 24 hours at 37° C. • 2.” for “1.”

Candida Albicans = assay: Antifungal activity MIC; assay type: cell-based; details: pH 7-7.5, sample 30% in aqueous solution
Procedure: as §1
as §5, with “1. Bacteria preparation • The testing bacterias were growth on the aqueous medium and incubated for 24 hours at 37° C. • 2.” for “1.”

Staphylococcus Aerus = assay: Biocide effication plate test, Staphylococcus Aerus; assay type: cell-based; details: biocide dosing 0.025%
[8] = system: Total Plate Count Microorganism; assay: Biocide effication plate test, total plate count microorganism; assay type: cell-based; details: for Total Plate Count: Blanco/Control 2400

Solubility @ 25° C. (Water solubility): 27.3%
pH of 30% solution (pH of 30% solution): 0.0-1.0
SMILES: O=S(=O)([O-])OC(O)C(O)(OS(=O)(=O)[O-])C(O)(OS(=O)(=O)[O-])C(O)OS(=O)(=O)[O-].[Na+].[Na+].[Na+].[Na+] (stereo not shown) [Tetra Hydroxy Butyl 1,2,3,4 Tetra Sulphate Tetra Natrium]

Solubility @ 25° C. (Water solubility): 56.7%
pH of 30% solution (pH of 30% solution): <0.0
SMILES: O=S(=O)(O)OC(O)C(C(O)OS(=O)(=O)O)C(O)OS(=O)(=O)O (stereo not shown) [Tri Hydroxy Isobutyl 1,2,3-Tri Sulphate]

Solubility @ 25° C. (Water solubility): 36.2%
pH of 30% solution (pH of 30% solution): 0.0-1.0
SMILES: O=S(=O)([O-])OC(O)C(C(O)OS(=O)(=O)[O-])C(O)OS(=O)(=O)[O-].[Na+].[Na+].[Na+] (stereo not shown) [Tri Hydroxy Isobutyl 1,2,3-Tri Sulphate Tri Natrium]

Solubility @ 25° C. (Water solubility): 40.1%
pH of 30% solution (pH of 30% solution): 0.0-0.5
SMILES: O=S(=O)([O-])OOC(O)C(O)(OS(=O)(=O)[O-])C(C(O)OS(=O)(=O)[O-])C(O)OS(=O)(=O)[O-].[Na+].[Na+].[Na+].[Na+] (stereo not shown) [Tetra Hydroxy Isoamyl 1,2,3,4-Tetra Sulphate Tetra Natrium]

Solubility @ 25° C. (Water solubility): 61.2%
pH of 30% solution (pH of 30% solution): <0
SMILES: O=S(=O)(O)OOC(O)C(O)(OS(=O)(=O)O)C(C(O)OS(=O)(=O)O)C(O)OS(=O)(=O)O (stereo not shown) [Tetra Hydroxy Isoamyl 1,2,3,4-Tetra Sulphate]

Solubility @ 25° C. (Water solubility): 39.6%
pH of 30% solution (pH of 30% solution): <0.0
SMILES: O=S(=O)(O)OC(O)C(O)(OS(=O)(=O)O)C(O)(OS(=O)(=O)O)C(O)OS(=O)(=O)O (stereo not shown) [Tetra Hydroxy Butyl 1,2,3,4 Tetra Sulphate]

SMILES: O=S(=O)(O)OC(O)(O)C(O)(O)OS(=O)(=O)O [Tetra Hydroxy Ethyl Di Sulphate]
Solubility @ 25° C. (Water solubility): 48.0%
water solubility (Water solubility): 48%
pH of 30% solution (pH of 30% solution): <0.5

SMILES: O=S(=O)([O-])OC(O)(O)C(O)(O)OS(=O)(=O)[O-].[Na+].[Na+] [THES-di Natrium]
Minimum Inhibitory Concentration (MIC) [1]: 0.234%
Minimum Inhibitory Concentration (MIC) [2]: 0.234%
Minimum Inhibitory Concentration (MIC) (Salmonella Typhii): 0.115%
Minimum Inhibitory Concentration (MIC) [3]: 0.115%
Minimum Inhibitory Concentration (MIC) (Acinetobacter Anitratus): 0.115%
Minimum Inhibitory Concentration (MIC) (Klebsiella Pneumoniae): 0.234%
Minimum Inhibitory Concentration (MIC) [4]: 0.234%
Minimum Inhibitory Concentration (MIC) [5]: 0.234%
transversal section (TEM) of cell, cell membrane alteration [6]: partly empty cells that has already lost its cytoplasm liquid due to lysis out of cell wall membrane
transversal section (TEM) of cell, cell membrane alteration [7]: also experienced the said internal cell liquid lysis out of its cell wall membrane layers
Killing efficiency (E. Coli; biocide dosing 0.025%): 48.5
Total Plate Count (E. Coli; biocide dosing 0.025%): 2010 Colony/ml
Killing efficiency (E. Coli; biocide dosing 0.05%): 70.5
Total Plate Count (E. Coli; biocide dosing 0.05%): 1150 Colony/ml
Killing efficiency (E. Coli; biocide dosing 0.1%): 73.1
Total Plate Count (E. Coli; biocide dosing 0.1%): 1050 Colony/ml
Killing efficiency (E. Coli; biocide dosing 0.5%): 75.1
Total Plate Count (E. Coli; biocide dosing 0.5%): 970 Colony/ml
Killing efficiency (E. Coli; biocide dosing 1.0%): 81.5
Total Plate Count (E. Coli; biocide dosing 1.0%): 720 Colony/ml
Killing efficiency (E. Coli; biocide dosing 5.0%): 83.8
Total Plate Count (E. Coli; biocide dosing 5.0%): 630 Colony/ml
Minimum Inhibitory Concentration (MIC) (Aspergillus Niger): 0.937%
Minimum Inhibitory Concentration (MIC) (Candida Albicans): 0.469%
Solubility @ 25° C. (Water solubility): 31.5%
water solubility (Water solubility): 31%
Killing efficiency (Staphylococcus Aerus): 69.8
Total Plate Count (Staphylococcus Aerus; Blanco 980): 296 Colony/ml
Killing efficiency ([8]; biocide dosing 0.05%): 94.5
Total Plate Count ([8]; biocide dosing 0.05%): 132 Colony/ml
Killing efficiency ([8]; biocide dosing 0.1%): 95.2
Total Plate Count ([8]; biocide dosing 0.1%): 115 Colony/ml
Killing efficiency ([8]; biocide dosing 0.5%): 95.8
Total Plate Count ([8]; biocide dosing 0.5%): 101 Colony/ml
Killing efficiency ([8]; biocide dosing 1.0%): 96.7
Total Plate Count ([8]; biocide dosing 1.0%): 80 Colony/ml
pH of 30% solution (pH of 30% solution): 0.5-1.5

Solubility @ 25° C. (Water solubility): 48%
water solubility (Water solubility): 48%
pH of 30% solution (pH of 30% solution): 0.0
SMILES: O=S(=O)(O)OC(OS(=O)(=O)O)(OS(=O)(=O)O)C(OS(=O)(=O)O)(OS(=O)(=O)O)OS(=O)(=O)O [EHS, Ethyl Hexa Sulphate acid (EHS)]
